Test results published in ChEMBL document CHEMBL3991601, “The target landscape of clinical kinase drugs” (Science, 2017).
Active and inactive are the calls of the source.

What follows are compounds tested against T1, Ephrin type-B receptor 2 (Homo sapiens, UniProt P29323).
T1 sequence (P29323 whole entry): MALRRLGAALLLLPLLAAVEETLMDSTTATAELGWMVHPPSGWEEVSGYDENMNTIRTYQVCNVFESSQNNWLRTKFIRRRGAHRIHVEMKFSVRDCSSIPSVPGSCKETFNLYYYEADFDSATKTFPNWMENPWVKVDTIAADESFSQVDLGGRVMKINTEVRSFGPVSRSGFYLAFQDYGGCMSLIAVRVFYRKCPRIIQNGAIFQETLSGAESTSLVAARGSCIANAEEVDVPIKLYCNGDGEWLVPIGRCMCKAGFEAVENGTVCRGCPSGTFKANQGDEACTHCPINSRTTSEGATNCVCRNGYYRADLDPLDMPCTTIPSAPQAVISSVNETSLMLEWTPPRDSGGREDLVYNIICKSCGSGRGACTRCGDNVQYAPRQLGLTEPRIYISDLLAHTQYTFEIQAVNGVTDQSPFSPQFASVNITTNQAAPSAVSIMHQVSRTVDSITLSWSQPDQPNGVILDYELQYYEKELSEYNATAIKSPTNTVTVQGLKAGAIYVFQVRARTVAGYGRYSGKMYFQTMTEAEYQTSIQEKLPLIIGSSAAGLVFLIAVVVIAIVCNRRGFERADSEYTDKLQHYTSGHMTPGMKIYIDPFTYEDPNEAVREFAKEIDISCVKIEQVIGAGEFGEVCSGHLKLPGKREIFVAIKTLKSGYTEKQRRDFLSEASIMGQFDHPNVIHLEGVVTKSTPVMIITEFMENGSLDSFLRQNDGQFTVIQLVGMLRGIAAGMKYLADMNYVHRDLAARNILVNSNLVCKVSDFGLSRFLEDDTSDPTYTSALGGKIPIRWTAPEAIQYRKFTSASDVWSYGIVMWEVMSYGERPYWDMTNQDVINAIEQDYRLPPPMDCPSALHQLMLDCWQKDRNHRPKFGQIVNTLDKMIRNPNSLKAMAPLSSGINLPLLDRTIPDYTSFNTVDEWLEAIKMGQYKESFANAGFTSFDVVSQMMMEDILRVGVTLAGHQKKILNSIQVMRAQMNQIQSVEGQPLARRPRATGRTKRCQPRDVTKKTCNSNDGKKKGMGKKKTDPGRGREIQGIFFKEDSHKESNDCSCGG
Note: in the data inactive means no Kd found up to 30 µM.

SMILES	Kd
N[C@@H]1CCCN(c2c(/C=C3\SC(=O)NC3=O)cccc2-c2ccccc2)C1	> 30 µM (inactive)
Cc1ccc(S(=O)(=O)Nc2nc3ccccc3nc2Nc2ccc3nsnc3c2)cc1	> 30 µM (inactive)
CN1CC[C@@H](c2c(O)cc(O)c3c(=O)cc(-c4ccccc4Cl)oc23)[C@@H]1CO	> 30 µM (inactive)
Cc1cc(-c2cc(O)ccc2Cl)cc2nnc(Nc3ccc(OCCN4CCCC4)cc3)nc12	0.002 µM (active)
CCN1CCN(Cc2ccc(-c3cc4c(N[C@H](C)c5ccccc5)ncnc4[nH]3)cc2)CC1 [AEE-788]	> 30 µM (inactive)
Cn1ncc(Cl)c1-c1cc(C(=O)N[C@H](CN)Cc2cccc(F)c2)sc1Cl [AFURESERTIB]	> 30 µM (inactive)

Each compound was assayed against T2, Mitogen-activated protein kinase kinase kinase 5 (Homo sapiens, UniProt Q99683).
T2 sequence (Q99683 whole entry): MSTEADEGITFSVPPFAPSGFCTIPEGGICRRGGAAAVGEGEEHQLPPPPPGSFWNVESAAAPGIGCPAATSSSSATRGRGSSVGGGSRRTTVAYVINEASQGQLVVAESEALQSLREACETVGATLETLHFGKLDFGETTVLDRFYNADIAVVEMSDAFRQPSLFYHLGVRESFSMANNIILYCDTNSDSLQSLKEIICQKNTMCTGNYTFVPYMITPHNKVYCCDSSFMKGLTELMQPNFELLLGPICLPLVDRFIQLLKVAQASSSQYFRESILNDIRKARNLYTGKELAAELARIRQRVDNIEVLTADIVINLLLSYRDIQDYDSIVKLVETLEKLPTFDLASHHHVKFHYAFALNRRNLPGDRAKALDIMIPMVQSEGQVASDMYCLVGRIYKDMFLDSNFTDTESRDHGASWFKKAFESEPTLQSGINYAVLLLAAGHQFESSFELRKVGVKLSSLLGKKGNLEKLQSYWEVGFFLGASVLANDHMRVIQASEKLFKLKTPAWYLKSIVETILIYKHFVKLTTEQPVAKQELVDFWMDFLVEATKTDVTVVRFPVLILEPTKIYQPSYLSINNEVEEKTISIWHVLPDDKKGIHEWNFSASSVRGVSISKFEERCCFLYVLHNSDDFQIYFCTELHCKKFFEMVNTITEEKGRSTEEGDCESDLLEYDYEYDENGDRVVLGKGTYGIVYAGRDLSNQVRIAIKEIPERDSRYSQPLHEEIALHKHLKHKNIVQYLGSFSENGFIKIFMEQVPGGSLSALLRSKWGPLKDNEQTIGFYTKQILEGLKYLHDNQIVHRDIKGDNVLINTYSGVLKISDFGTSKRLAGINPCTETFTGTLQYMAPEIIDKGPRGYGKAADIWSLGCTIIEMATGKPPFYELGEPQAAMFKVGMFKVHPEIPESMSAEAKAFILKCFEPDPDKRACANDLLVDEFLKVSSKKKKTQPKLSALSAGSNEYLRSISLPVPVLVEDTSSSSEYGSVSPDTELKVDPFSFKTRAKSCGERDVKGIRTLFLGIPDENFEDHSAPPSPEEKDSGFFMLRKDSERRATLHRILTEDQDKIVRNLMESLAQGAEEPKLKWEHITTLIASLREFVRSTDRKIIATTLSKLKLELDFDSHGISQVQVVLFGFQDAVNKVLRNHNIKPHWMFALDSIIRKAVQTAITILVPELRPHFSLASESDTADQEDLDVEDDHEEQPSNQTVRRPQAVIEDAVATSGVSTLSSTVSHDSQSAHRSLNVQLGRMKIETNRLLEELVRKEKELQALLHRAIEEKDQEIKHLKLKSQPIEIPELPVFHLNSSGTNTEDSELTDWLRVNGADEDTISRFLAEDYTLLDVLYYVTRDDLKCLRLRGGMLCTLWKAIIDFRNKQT

SMILES	Kd
N[C@@H]1CCCN(c2c(/C=C3\SC(=O)NC3=O)cccc2-c2ccccc2)C1	> 30 µM (inactive)
Cc1ccc(S(=O)(=O)Nc2nc3ccccc3nc2Nc2ccc3nsnc3c2)cc1	> 30 µM (inactive)
CN1CC[C@@H](c2c(O)cc(O)c3c(=O)cc(-c4ccccc4Cl)oc23)[C@@H]1CO	> 30 µM (inactive)
Cc1cc(-c2cc(O)ccc2Cl)cc2nnc(Nc3ccc(OCCN4CCCC4)cc3)nc12	> 30 µM (inactive)
CCN1CCN(Cc2ccc(-c3cc4c(N[C@H](C)c5ccccc5)ncnc4[nH]3)cc2)CC1 [AEE-788]	> 30 µM (inactive)
Cn1ncc(Cl)c1-c1cc(C(=O)N[C@H](CN)Cc2cccc(F)c2)sc1Cl [AFURESERTIB]	> 30 µM (inactive)

What follows are compounds tested against Tyrosine-protein kinase BTK (Homo sapiens, UniProt Q06187).
Tyrosine-protein kinase BTK, sequence (Q06187 whole entry): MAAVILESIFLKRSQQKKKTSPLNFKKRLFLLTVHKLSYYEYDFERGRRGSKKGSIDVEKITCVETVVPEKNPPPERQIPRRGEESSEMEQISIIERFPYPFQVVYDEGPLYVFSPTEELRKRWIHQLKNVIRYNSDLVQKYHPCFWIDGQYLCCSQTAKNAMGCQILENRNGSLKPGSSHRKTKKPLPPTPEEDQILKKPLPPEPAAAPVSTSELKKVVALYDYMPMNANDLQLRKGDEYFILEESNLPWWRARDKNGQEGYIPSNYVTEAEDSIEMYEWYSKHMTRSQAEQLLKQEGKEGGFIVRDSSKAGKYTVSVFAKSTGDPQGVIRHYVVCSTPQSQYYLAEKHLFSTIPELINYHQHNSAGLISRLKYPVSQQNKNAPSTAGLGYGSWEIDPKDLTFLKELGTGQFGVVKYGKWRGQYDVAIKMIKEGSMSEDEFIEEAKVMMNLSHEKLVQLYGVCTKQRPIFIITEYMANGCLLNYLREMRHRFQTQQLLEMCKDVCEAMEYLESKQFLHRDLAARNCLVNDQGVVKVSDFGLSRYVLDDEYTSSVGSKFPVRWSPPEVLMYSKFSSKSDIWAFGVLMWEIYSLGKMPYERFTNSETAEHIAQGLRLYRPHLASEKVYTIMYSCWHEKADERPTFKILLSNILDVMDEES

SMILES	Kd
N[C@@H]1CCCN(c2c(/C=C3\SC(=O)NC3=O)cccc2-c2ccccc2)C1	> 30 µM (inactive)
Cc1ccc(S(=O)(=O)Nc2nc3ccccc3nc2Nc2ccc3nsnc3c2)cc1	> 30 µM (inactive)
CN1CC[C@@H](c2c(O)cc(O)c3c(=O)cc(-c4ccccc4Cl)oc23)[C@@H]1CO	> 30 µM (inactive)
Cc1cc(-c2cc(O)ccc2Cl)cc2nnc(Nc3ccc(OCCN4CCCC4)cc3)nc12	> 30 µM (inactive)
CCN1CCN(Cc2ccc(-c3cc4c(N[C@H](C)c5ccccc5)ncnc4[nH]3)cc2)CC1 [AEE-788]	> 30 µM (inactive)
Cn1ncc(Cl)c1-c1cc(C(=O)N[C@H](CN)Cc2cccc(F)c2)sc1Cl [AFURESERTIB]	> 30 µM (inactive)

Each compound was assayed against Mitogen-activated protein kinase 11 (Homo sapiens, UniProt Q15759).
Mitogen-activated protein kinase 11, sequence (Q15759 whole entry): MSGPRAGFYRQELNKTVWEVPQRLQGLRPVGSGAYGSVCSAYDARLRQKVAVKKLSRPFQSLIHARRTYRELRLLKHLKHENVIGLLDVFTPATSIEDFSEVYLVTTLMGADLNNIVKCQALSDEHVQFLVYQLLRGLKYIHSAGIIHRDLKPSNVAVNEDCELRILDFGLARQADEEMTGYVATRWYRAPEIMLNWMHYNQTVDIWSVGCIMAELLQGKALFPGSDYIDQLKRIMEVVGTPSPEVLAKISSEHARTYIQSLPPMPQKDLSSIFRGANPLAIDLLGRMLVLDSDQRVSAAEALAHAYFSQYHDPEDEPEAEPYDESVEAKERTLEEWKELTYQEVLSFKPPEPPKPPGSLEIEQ

SMILES	Kd
N[C@@H]1CCCN(c2c(/C=C3\SC(=O)NC3=O)cccc2-c2ccccc2)C1	> 30 µM (inactive)
Cc1ccc(S(=O)(=O)Nc2nc3ccccc3nc2Nc2ccc3nsnc3c2)cc1	> 30 µM (inactive)
CN1CC[C@@H](c2c(O)cc(O)c3c(=O)cc(-c4ccccc4Cl)oc23)[C@@H]1CO	> 30 µM (inactive)
Cc1cc(-c2cc(O)ccc2Cl)cc2nnc(Nc3ccc(OCCN4CCCC4)cc3)nc12	> 30 µM (inactive)
CCN1CCN(Cc2ccc(-c3cc4c(N[C@H](C)c5ccccc5)ncnc4[nH]3)cc2)CC1 [AEE-788]	> 30 µM (inactive)
Cn1ncc(Cl)c1-c1cc(C(=O)N[C@H](CN)Cc2cccc(F)c2)sc1Cl [AFURESERTIB]	> 30 µM (inactive)

Each compound was assayed against Serine/threonine-protein kinase PAK 2 (Homo sapiens, UniProt Q13177).
Serine/threonine-protein kinase PAK 2, sequence (Q13177 whole entry): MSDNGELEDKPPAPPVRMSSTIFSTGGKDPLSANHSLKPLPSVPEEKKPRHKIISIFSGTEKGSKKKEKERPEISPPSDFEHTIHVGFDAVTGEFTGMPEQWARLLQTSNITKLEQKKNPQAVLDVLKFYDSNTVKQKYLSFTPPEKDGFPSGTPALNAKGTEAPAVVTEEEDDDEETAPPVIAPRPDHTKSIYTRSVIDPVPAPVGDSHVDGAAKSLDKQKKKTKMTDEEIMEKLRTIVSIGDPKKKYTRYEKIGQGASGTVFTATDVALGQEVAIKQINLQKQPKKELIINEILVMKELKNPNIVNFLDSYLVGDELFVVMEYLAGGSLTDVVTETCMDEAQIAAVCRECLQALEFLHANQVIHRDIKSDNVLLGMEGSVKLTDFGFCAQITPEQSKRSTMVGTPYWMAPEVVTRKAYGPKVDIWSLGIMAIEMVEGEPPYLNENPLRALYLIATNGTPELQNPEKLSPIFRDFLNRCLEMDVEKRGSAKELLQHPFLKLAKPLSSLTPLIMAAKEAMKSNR

SMILES	Kd
N[C@@H]1CCCN(c2c(/C=C3\SC(=O)NC3=O)cccc2-c2ccccc2)C1	> 30 µM (inactive)
Cc1ccc(S(=O)(=O)Nc2nc3ccccc3nc2Nc2ccc3nsnc3c2)cc1	> 30 µM (inactive)
CN1CC[C@@H](c2c(O)cc(O)c3c(=O)cc(-c4ccccc4Cl)oc23)[C@@H]1CO	> 30 µM (inactive)
Cc1cc(-c2cc(O)ccc2Cl)cc2nnc(Nc3ccc(OCCN4CCCC4)cc3)nc12	> 30 µM (inactive)
CCN1CCN(Cc2ccc(-c3cc4c(N[C@H](C)c5ccccc5)ncnc4[nH]3)cc2)CC1 [AEE-788]	> 30 µM (inactive)
Cn1ncc(Cl)c1-c1cc(C(=O)N[C@H](CN)Cc2cccc(F)c2)sc1Cl [AFURESERTIB]	> 30 µM (inactive)
